Results: US11878970B2, “Allosteric chromenone inhibitors of phosphoinositide 3-kinase (PI3K) for the treatment of disease” (Petra Pharma Corporation, priority 2021, dated 2024)

What was measured:
[1] = target: T1, PI3K-α (PIK3CA) wild-type (WT), p110α/p85α complex (Homo sapiens, UniProt P42336); experiment: PI3K-alpha kinase (PIK3CA) biochemical activity, ADP-Glo, wild-type; conditions: Soy PI lipid substrate
T1 construct: Recombinant, catalytically active human full length PIK3KA Wild-type and H1047R mutant; 6×His (N); purchased EMD Millipore Sigma 14-602M
Procedure, shortened: (§1)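 ADP formation measured by ADP-Glo luminescence after reaction at 27 °C to about 10% ATP turnover, using 20 uM ATP, 50 uM PIP2diC8 or soy PI lipid, HEPES pH 7.4 with MgCl2. Enzyme (1-5 nM WT or H1047R p110α/p85α) and compound preincubated 1 h first; 10-point 1:3 curves fitted four-parameter for IC50.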

[2] = target: T2, PI3K-α (PIK3CA) H1047R mutant, p110α/p85α complex (Homo sapiens, UniProt P42336, H1047R); experiment: PI3K-alpha kinase (PIK3CA) biochemical activity, ADP-Glo, H1047R mutant; conditions: Soy PI lipid substrate
T2 construct: Recombinant, catalytically active human full length PIK3KA Wild-type and H1047R mutant; 6×His (N); purchased EMD Millipore Sigma 14-792M
Procedure, shortened: as §1

[3] = target: PI3K-α (PIK3CA) in MDA-MB-453 cells (Homo sapiens, UniProt P42336); experiment: PI3K-alpha kinase (PIK3CA) in vitro cell based assay, MDA-MB-453 cells, SureFire Ultra AlphaLisa; conditions: read-out: PI3K-α (PIK3CA) in vitro cell based assay IC50
Procedure: PI3K-Alpha Kinase (PIK3CA) Activity In Vitro Cell Based Assay and Determining IC50 Values for Inhibitors
The MDA-MB-453 (ATCC-HTB-131) cell line was obtained from the American Type Culture Collection (Manassas, VA). Cells were maintained in Dulbecco's Modified Eagle Media (DMEM, Gibco 11965-092) supplemented with 10% Fetal Bovine Serum, heat inactivated (FBS HI, Gibco 10082-147), 1× non-essential amino acids (NEAA, Gibco 11140-050), and 1 mM sodium pyruvate (Gibco 11360-070). Cultures were maintained in a humidified incubator at 37° C. under 5% CO2/95% air.
For compound testing in 0% FBS, MDA-MB-453 cells were seeded at a density of 1.5×10^4 cells per well in white 384-well plates in 20 μl of Minimum Essential Media (MEM) assay media with 1×NEAA, 1 mM sodium pyruvate, and 1 μg/mL human insulin (Sigma I9278). Compounds dissolved in 10 mM stock solutions in DMSO were serially diluted 1:3 in DMSO to generate a 10-point dilution series and plated using an acoustic liquid handler system (Echo 550 Series Liquid Handler, Labcyte). A 5× intermediate compound dilution plate in MEM with 1×NEAA and 1 mM sodium pyruvate (150 μM starting compound concentration in 1.5% DMSO) was then prepared. Five μl of the intermediate serially diluted compounds were added to the cell plate to final concentrations ranging from […] in 0.3% DMSO. 0.3% DMSO alone was used to establish the maximum (MAX) signal and GDC-0032 at a final concentration of 1 μM was used as a reference compound for the minimum (MIN) signal. After 3 hours treatment, the medium was removed, and the cells lysed in 10 μL of 1× SureFire Lysis buffer with shaking for 10 minutes at room temperature. The Acceptor Mix (Reaction Buffer 1+Reaction Buffer 2+Activation Buffer+SureFire Ultra Acceptor Beads) was prepared by diluting Activation buffer 25-fold in combined Reaction Buffer 1 and Reaction Buffer 2. The Acceptor beads were diluted 50-fold in the combined Reaction Buffers. Five μL of Acceptor Mix was added to each well, the plate was sealed and covered with foil and incubated for 1 hour at room temperature. The Donor Mix (dilution buffer+SureFire Ultra Donor Beads) was prepared by diluting Donor Beads 50-fold in dilution buffer. Five μL of the Donor Mix was added to each well and the plate sealed and covered with foil and incubated for 1 hour at room temperature in the dark. The plates were read on a Neo2 plate reader instrument from Biotek using standard AlphaLisa settings. Compounds were tested in duplicate and the average % inhibition at each compound concentration was used to generate a single dose response curve. The data were processed using the Genedata-Screener tool. Relative IC50 values were determined using luminescence units by calculating percent inhibition with respect to the in-plate “MIN” (GDC-0032 reference control) and “MAX” (DMSO) controls. The data was analyzed using a 4-parameter nonlinear logistic equation (four-parameter logistic concentration-response curve): Y=bottom+[(top−bottom)/1+(X/IC50)slope] where Y=% inhibition, X=concentration of inhibitor, bottom=minimum value of y attained by curve-fit, top=maximum value of y attained by curve-fit and slope=steepness of curve at the IC50. % Inhibition=[(signal at X−median Min)/(median Max−median Min)]×100 IC50: concentration of compound that reduces a given response (ligand binding, enzyme response) by 50%. Relative IC50: concentration giving half the compound's maximum response.

Chain of PI3K-α (PIK3CA) in MDA-MB-453 cells (P27986 2-724): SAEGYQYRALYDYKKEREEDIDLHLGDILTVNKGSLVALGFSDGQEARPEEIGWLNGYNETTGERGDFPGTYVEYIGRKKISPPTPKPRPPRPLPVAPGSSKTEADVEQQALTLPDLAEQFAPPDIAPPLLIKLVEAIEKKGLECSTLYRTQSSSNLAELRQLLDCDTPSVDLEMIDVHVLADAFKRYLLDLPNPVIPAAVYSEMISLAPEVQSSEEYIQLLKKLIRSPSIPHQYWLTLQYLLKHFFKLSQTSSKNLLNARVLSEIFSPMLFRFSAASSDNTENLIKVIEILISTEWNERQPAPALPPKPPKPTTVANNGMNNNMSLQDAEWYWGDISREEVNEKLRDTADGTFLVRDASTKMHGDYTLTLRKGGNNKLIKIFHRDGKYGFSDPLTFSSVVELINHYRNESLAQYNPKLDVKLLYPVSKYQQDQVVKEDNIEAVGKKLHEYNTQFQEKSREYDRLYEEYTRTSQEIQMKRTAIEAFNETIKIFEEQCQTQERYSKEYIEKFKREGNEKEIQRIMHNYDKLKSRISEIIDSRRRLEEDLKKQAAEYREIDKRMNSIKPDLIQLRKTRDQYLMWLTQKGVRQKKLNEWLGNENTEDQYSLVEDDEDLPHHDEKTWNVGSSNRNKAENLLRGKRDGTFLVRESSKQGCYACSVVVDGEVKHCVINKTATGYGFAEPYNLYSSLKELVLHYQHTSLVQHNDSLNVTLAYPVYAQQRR
Chain of PI3K-α (PIK3CA) in MDA-MB-453 cells (P42336 whole entry): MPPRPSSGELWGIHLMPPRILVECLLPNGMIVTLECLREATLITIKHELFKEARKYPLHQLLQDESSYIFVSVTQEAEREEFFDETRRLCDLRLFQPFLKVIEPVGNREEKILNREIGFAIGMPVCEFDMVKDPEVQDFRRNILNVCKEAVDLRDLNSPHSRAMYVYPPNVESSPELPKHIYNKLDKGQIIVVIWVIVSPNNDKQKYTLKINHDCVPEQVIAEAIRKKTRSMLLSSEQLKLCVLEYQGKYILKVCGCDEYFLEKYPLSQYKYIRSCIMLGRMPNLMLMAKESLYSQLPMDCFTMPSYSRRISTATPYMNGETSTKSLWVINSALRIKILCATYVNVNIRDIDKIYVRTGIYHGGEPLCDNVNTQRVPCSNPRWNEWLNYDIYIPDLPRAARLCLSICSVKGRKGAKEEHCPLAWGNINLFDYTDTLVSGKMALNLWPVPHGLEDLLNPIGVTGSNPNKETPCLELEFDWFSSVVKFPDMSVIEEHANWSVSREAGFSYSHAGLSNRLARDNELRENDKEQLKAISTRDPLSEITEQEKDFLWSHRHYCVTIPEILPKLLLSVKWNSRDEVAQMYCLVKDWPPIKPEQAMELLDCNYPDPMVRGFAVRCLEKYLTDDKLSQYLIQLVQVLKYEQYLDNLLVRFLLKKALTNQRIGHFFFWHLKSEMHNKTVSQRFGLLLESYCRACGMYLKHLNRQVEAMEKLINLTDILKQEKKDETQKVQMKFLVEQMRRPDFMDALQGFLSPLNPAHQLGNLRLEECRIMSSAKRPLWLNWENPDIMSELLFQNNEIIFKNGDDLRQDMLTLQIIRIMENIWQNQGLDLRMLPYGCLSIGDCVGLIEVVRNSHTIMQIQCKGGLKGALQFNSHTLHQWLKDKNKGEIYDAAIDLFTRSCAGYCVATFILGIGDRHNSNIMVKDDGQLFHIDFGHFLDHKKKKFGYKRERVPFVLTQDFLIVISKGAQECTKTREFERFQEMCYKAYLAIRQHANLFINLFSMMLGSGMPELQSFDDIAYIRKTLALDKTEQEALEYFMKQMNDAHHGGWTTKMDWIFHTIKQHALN
T2 sequence (P42336 whole entry H1047R): as the sequence (P42336 whole entry) above, with H1047R counted along it
T2 sequence (P27986 whole entry partner): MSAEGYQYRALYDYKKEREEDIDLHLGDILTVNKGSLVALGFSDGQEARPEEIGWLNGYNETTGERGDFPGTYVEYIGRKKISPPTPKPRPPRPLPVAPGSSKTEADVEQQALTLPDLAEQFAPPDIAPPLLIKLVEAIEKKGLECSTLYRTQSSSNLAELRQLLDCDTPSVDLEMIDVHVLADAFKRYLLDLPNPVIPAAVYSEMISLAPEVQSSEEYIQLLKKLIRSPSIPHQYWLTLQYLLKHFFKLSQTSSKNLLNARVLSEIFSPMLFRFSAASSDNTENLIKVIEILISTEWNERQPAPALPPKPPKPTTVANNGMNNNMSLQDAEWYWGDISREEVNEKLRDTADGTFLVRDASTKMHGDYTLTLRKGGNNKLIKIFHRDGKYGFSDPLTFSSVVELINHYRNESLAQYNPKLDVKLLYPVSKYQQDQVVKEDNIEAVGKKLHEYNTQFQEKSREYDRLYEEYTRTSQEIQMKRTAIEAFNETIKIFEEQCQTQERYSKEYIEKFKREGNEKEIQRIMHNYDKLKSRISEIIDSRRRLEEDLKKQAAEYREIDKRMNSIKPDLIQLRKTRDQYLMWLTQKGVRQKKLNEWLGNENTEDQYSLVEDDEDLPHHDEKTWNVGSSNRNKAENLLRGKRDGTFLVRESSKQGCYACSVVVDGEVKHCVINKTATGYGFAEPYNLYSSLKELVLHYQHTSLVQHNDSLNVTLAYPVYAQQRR

SMILES	IC50 [1]	IC50 [2]	IC50 [3]
Cc1cc(C(C)Nc2ccccc2C(=O)O)c2oc(-c3ccc4nc(C)sc4n3)cc(=O)c2c1 (single isomer, unassigned) [Example 139, 2-[1-[6-Methyl-2-(2-methylthiazolo[5,4-b]pyridin-5-yl)-4-oxo-chromen-8-yl]ethylamino]benzoic acid]	1000 to 5000 nM	< 500 nM	< 50 nM
Cc1cc(C(C)Nc2ccccc2C(=O)O)c2oc(-c3ccc4cnn(C)c4c3)cc(=O)c2c1 (single isomer, unassigned) [Example 25, 2-[1-[6-Methyl-2-(1-methylindazol-6-yl)-4-oxo-chromen-8-yl]ethylamino]benzoic acid]	< 500 nM	< 500 nM	50 to 100 nM
Cc1cc(C(C)Nc2ccccc2C(=O)O)c2oc(-c3ccc4[nH]c(C)nc4c3)cc(=O)c2c1 (single isomer, unassigned) [Example 65, 2-[1-[6-Methyl-2-(2-methyl-1H-benzimidazol-5-yl)-4-oxo-chromen-8-yl]ethylamino]benzoic acid]	1000 to 5000 nM	< 500 nM	100 to 500 nM
Cc1cc(C(C)Nc2cccc(F)c2C(=O)O)c2oc(-c3nn(C)c4ccccc34)cc(=O)c2c1 (single isomer, unassigned) [Example 189, 2-Fluoro-6-[1-[6-methyl-2-(1-methylindazol-3-yl)-4-oxo-chromen-8-yl]ethylamino]benzoic acid]	500 to 1000 nM	< 500 nM	50 to 100 nM
Cc1cc(C(C)Nc2ccccc2C(=O)O)c2oc(-c3ccn4nccc4c3)cc(=O)c2c1 (single isomer, unassigned) [Example 113, 2-[1-(6-Methyl-4-oxo-2-pyrazolo[1,5-a]pyridin-5-yl-chromen-8-yl)ethylamino]benzoic acid]	500 to 1000 nM	< 500 nM	< 50 nM
Cc1cc(C(C)Nc2ccccc2C(=O)O)c2oc(-c3ccc4oc(C)nc4c3)cc(=O)c2c1 (single isomer, unassigned) [Example 19, 2-[1-[6-Methyl-2-(2-methyl-1,3-benzoxazol-5-yl)-4-oxo-chromen-8-yl]ethylamino]benzoic acid]	1000 to 5000 nM	< 500 nM	> 500 nM
Cc1cc([C@@H](C)Nc2ccc(Cl)cc2C(=O)O)c2oc(-c3ccc4c(cnn4C)c3)c(C)c(=O)c2c1 [Example 259, 5-Chloro-2-[[(1R)-1-[3,6-dimethyl-2-(1-methylindazol-5-yl)-4-oxo-chromen-8-yl]ethyl]amino]benzoic acid]	< 500 nM	< 500 nM	50 to 100 nM
Cc1cc(C(C)Nc2ccccc2C(=O)O)c2oc(-c3cccc4oc(C)nc34)cc(=O)c2c1 (single isomer, unassigned) [Example 117, 2-[1-[6-Methyl-2-(2-methyl-1,3-benzoxazol-4-yl)-4-oxo-chromen-8-yl]ethylamino]benzoic acid]	1000 to 5000 nM	500 to 1000 nM	> 500 nM
Cc1cc([C@@H](C)Nc2ccccc2C(=O)O)c2oc(-c3ccc4nn(Cc5ccccc5)cc4c3)c(C)c(=O)c2c1 [Example 210, 2-[[(1R)-1-[2-(2-Benzylindazol-5-yl)-3,6-dimethyl-4-oxo-chromen-8-yl]ethyl]amino]benzoic acid]	500 to 1000 nM	< 500 nM	< 50 nM
Cc1cc(C(C)Nc2cccc(F)c2C(=O)O)c2oc(-c3ccc4cnn(C)c4c3)cc(=O)c2c1 (single isomer, unassigned) [Example 222, 2-fluoro-6-[1-[6-methyl-2-(1-methylindazol-6-yl)-4-oxo-chromen-8-yl]ethylamino]benzoic acid]	500 to 1000 nM	< 500 nM	100 to 500 nM
Cc1cc(C(C)Nc2ccccc2C(=O)O)c2oc(-c3cc4cn(C)nc4cn3)cc(=O)c2c1 (single isomer, unassigned) [Example 160, 2-[1-[6-Methyl-2-(2-methylpyrazolo[3,4-c]pyridin-5-yl)-4-oxo-chromen-8-yl]ethylamino]benzoic acid]	1000 to 5000 nM	< 500 nM	50 to 100 nM
Cc1cc(C(C)Nc2ccccc2C(=O)O)c2oc(-c3cc4cnccc4o3)c(C)c(=O)c2c1 (single isomer, unassigned) [Example 153, 2-[1-(2-Furo[3,2-c]pyridin-2-yl-3,6-dimethyl-4-oxo-chromen-8-yl)ethylamino]benzoic acid]	< 500 nM	< 500 nM	< 50 nM
Cc1cc(C(C)Nc2ccccc2C(=O)O)c2oc(-c3cc4ccccc4[nH]3)c(C)c(=O)c2c1 (single isomer, unassigned) [Example 52, 2-[1-[2-(1H-Indol-2-yl)-3,6-dimethyl-4-oxo-chromen-8-yl]ethylamino]benzoic acid]	500 to 1000 nM	< 500 nM	< 50 nM
Cc1cc([C@@H](C)Nc2ccc(F)cc2C(=O)O)c2oc(-c3ccc4nn(C)cc4c3)c(C)c(=O)c2c1 [Example 253, 2-[[(1R)-1-[3,6-Dimethyl-2-(2-methylindazol-5-yl)-4-oxo-chromen-8-yl]ethyl]amino]-5-fluoro-benzoic acid]	< 500 nM	< 500 nM	< 50 nM
Cc1cc([C@@H](C)Nc2ccc(Cl)nc2C(=O)O)c2oc(-c3cc4cnccc4o3)c(C)c(=O)c2c1 [Example 214, 6-Chloro-3-[[(1R)-1-(2-furo[3,2-c]pyridin-2-yl-3,6-dimethyl-4-oxo-chromen-8-yl)ethyl]amino]pyridine-2-carboxylic acid]	< 500 nM	< 500 nM	< 50 nM
Cc1cc(C(C)Nc2ccccc2C(=O)O)c2oc(-c3cccc4ocnc34)cc(=O)c2c1 (single isomer, unassigned) [Example 110, 2-[1-[2-(1,3-Benzoxazol-4-yl)-6-methyl-4-oxo-chromen-8-yl]ethylamino]benzoic acid]	5000 to 10000 nM	< 500 nM	< 50 nM
Cc1cc([C@@H](C)Nc2ccc(Cl)nc2C(=O)O)c2oc(-c3ccc4nc(C)sc4n3)c(C)c(=O)c2c1 [Example 242, 6-Chloro-3-[[(1R)-1-[3,6-dimethyl-2-(2-methylthiazolo[5,4-b]pyridin-5-yl)-4-oxo-chromen-8-yl]ethyl]amino]pyridine-2-carboxylic acid]	500 to 1000 nM	< 500 nM	< 50 nM
Cc1cc([C@@H](C)Nc2ccc(Cl)nc2C(=O)O)c2oc(-c3cc4cccnc4[nH]3)c(C)c(=O)c2c1 [Example 247, 6-Chloro-3-[[(1R)-1-[3,6-dimethyl-4-oxo-2-(1H-pyrrolo[2,3-b]pyridin-2-yl)chromen-8-yl]ethyl]amino]pyridine-2-carboxylic acid]	< 500 nM	< 500 nM	< 50 nM
Cc1cc(C(C)Nc2ccccc2C(=O)O)c2oc(-c3ccc4c(c3)c(C)nn4C)cc(=O)c2c1 (single isomer, unassigned) [Example 59, 2-[1-[2-(1,3-Dimethylindazol-5-yl)-6-methyl-4-oxo-chromen-8-yl]ethylamino]benzoic acid]		< 500 nM	< 50 nM
